For data set [1], the target named is T1, acid phosphatase sample derived from Morganella morganii (Morganella morganii, UniProt P28581).
T1 construct: homo-oligomer; signal peptide removed
Put plainly: Production of 5'-inosinic acid from various phosphate group donors by acid phosphatase sample. In kind it is biochemical, Morganella morganii NCIMB 10466. As to conditions: inosine 2 g/dl, phosphate group donor 10 g/dl, enzyme 50 units/dl, pH 4.0, 30° C., 3 hours. The protocol:
(§1) The reaction mixture was incubated at 30° C. for 3 hours while maintaining pH at 4.0.

Data set [2] concerns the target T2, acid phosphatase sample derived from Escherichia blattae (Shimwellia blattae, UniProt I2BB71).
T2 construct: homo-oligomer; signal peptide removed
Described as above. The class given is biochemical, Escherichia blattae JCM 1650. As to conditions: inosine 2 g/dl, phosphate group donor 10 g/dl, enzyme 50 units/dl, pH 4.0, 35° C., 3 hours. The protocol: The reaction miture was incubated at 35° C. for 3 hours while maintaining pH at 4.0.

The test system of data set [3] is Escherichia coli JM109/pMPI530. Put plainly: Production of 5'-inosinic acid from various phosphate group donors by microbial cells of the mutant strain. In kind it is cell-based. To be noted: inosine 6 g/dl, phosphate group donor 10 g/dl, cells 100 mg/dl dry weight, buffer pH 4.5, pH maintained at 4.0, 30° C., 22 hours. The text has this:
(§2) 5'-Inosinic acid was efficiently produced and accumulated by using any of the phosphate group donors. However, the accumulated amount of 5'-inosinic acid was the highest when polyphosphoric acid was used as the phosphate group donor.

The subject of data set [4] is Escherichia coli JM109/pEPI330. The description is as above. In kind it is cell-based. To be noted: inosine 6 g/dl, phosphate group donor 12 g/dl, cells 200 mg/dl dry weight, pH 4.0, 35° C., 32 hours.
Excerpt: as §2

For data set [5], the system named is Escherichia coli JM109/pMPI530. The data set is described as follows: Production of various nucleoside-5'-phosphate esters by microbial cells of the mutant strain. The class given is cell-based. To be noted: sodium pyrophosphate 12 g/dl, nucleoside 6 g/dl, cells 100 mg/dl dry weight, pH 4.0, 30° C., 22 hours. The text has this: (§3) Produced nucleotide contained only nucleoside-5'-phosphate ester. By-production of nucleoside-2'-phosphate ester and nucleoside-3'-phosphate ester was not observed at all.

Data set [6] deals with Escherichia coli JM109/pEPI330. The description is as above. The class given is cell-based. To be noted: sodium pyrophosphate 12 g/dl, nucleoside 6 g/dl, cells 200 mg/dl dry weight, pH 4.0, 35° C., 32 hours.
Excerpt: as §3

Data set [7] deals with T2, acid phosphatase sample derived from Escherichia blattae. The data set is described as follows: Phosphorylation reaction of various nucleosides by acid phosphatase sample. In kind it is biochemical, Escherichia blattae JCM 1650. As to conditions: sodium pyrophosphate 15 g/dl, enzyme 50 units/dl, 3 hours; for Produced amount of nucleoside-5'-ester: nucleoside 3 g/dl, pH 4.0, 35° C. The protocol:
(§4) Incidentally, in the reaction to produce nucleoside-5'-phosphate esters using nucleosides other than inosine as raw materials, the nucleosides as raw materials and produced nucleoside-5'-phosphate esters were analyzed by HPLC as described above.
(§5) Sodium pyrophosphate (15 g/dl) and inosine (3 g/dl) were dissolved in sodium acetate buffers each having pH of 5.5, 5.0, 4.5, 4.0, and 3.5, to which the enzyme sample described above was added so that a concentration of 50 units/dl was obtained. […] Produced inosinic acid contained only 5'-inosinic acid. By-production of 2'-inosinic acid and 3'-inosinic acid was not observed at all. The velocity of 5'-inosinic acid production was maximum at pH 5.0. However, the maximum accumulated amount of 5'-inosinic acid was higher at lower pH. The reaction condition at pH 4.0 was most efficient for production of 5'-inosinic acid. 5'-Inosinic acid was produced and accumulated in an amount of 1.56 g/dl by performing the reaction at 30° C. at pH 4.0 for 3 hours.
The reaction mixture was incubated at 35° C. for 3 hours while maintaining pH at 4.0.

Data set [8] addresses T1, acid phosphatase sample derived from Morganella morganii. The data set is described as above. In kind it is biochemical, Morganella morganii NCIMB 10466. As to conditions: sodium pyrophosphate 10 g/dl, nucleoside 2 g/dl, enzyme 50 units/dl, pH 4.0, 30° C., 3 hours. The protocol: as §4
as §5, with “(10” for “(15”, “(2” for “(3”, “acid, in which 5'-inosinic” for “acid. 5'-Inosinic”, “2.60” for “1.56”, “reaction” for “reaction at 30° C. at pH 4.0”
as §1

The target of data set [9] is T3, acid phosphatase derived from Escherichia blattae (Shimwellia blattae, UniProt I2BB71).
T3 construct: homo-oligomer; 18-residue signal peptide removed
T3 sequence (I2BB71 19-249): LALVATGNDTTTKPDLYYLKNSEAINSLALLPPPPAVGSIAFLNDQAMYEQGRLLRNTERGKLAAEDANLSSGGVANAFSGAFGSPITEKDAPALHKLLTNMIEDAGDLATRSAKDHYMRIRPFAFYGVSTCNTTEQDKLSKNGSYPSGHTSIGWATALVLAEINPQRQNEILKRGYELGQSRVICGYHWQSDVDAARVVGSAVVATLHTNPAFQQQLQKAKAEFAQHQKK
The class given is biochemical, Escherichia blattae JCM 1650.

Data set [10] has as its target T4, acid phosphatase derived from Morganella morganii (Morganella morganii, UniProt P28581).
T4 construct: homo-oligomer of about 25 kDa subunits; 20-residue signal peptide removed
T4 sequence (P28581 21-249): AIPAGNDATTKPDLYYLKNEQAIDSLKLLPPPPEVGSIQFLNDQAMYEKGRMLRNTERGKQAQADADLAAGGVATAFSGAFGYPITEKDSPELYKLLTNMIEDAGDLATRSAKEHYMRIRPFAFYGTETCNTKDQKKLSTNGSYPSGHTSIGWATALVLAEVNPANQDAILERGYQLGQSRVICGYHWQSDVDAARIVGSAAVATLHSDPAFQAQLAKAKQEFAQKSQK
In kind it is biochemical.

Data set [11] can be described thus: Phosphomonoesterase activity (inosine produced by hydrolysis of 5'-inosinic acid). The class given is biochemical. To be noted: purified Morganella morganii enzyme. The protocol: The phosphomonoesterase activity was measured under the following condition using 5'-inosinic acid as a substrate. The reaction was performed at 30° C. for 10 minutes in a reaction solution (1 ml) containing 10 μmol/ml of 5'-inosinic acid, 100 μmol/ml of MES/NaOH buffer (pH 6.0), and an enzyme. The reaction was stopped by adding 200 μl of 2 N hydrochloric acid. After that, precipitates were removed by centrifugation. Then, inosine produced by the hydrolytic reaction was quantitatively measured. An amount of enzyme to produce 1 μmol of inosine per 1 minute under this standard reaction condition was defined as 1 unit.
Inosine and 5'-inosinic acid were analyzed under the following condition by means of high-performance liquid chromatography (HPLC).

Data set [12] in a line: Properties of the purified acid phosphatase derived from Morganella morganii. On the set-up: species or system Morganella morganii NCIMB 10466. The protocol:
A nutrient medium (pH 7.0, 50 ml) containing 1 g/dl of peptone, 0.5 g/dl of yeast extract, and 1 g/dl of sodium chloride was poured into Sakaguchi flasks (500 ml), which was sterilized at 120° C. for 20 minutes. A slant culture of Morganella morganii NCIMB 10466 was inoculated to each of the flasks once with a platinum loop, which was cultivated at 30° C. for 16 hours with shaking. Microbial cells (about 3,000 g), which were harvested from a culture by centrifugation, were suspended in 100 mM potassium phosphate buffer (1 L, pH 7.0). A ultrasonic treatment was performed at 4° C. for 20 minutes to disrupt the microbial cells. The treated suspension was centrifuged to remove its insoluble fraction. Thus a cell-free extract was prepared.
The purified enzyme had the following properties.

Setting [13] is: purified Escherichia blattae enzyme.
Where [14] appears, read: purified Morganella morganii enzyme.

Like-named read-outs stand apart in the source and are kept apart here.

On to `O=P(O)(O)OP(=O)(O)OP(=O)(O)O` [Sodium tripolyphosphate, sodium tripolyphosphate], for which the “Produced 5'-inosinic acid” value in data set [1] is 2.10 g/dL; in data set [2] it was 1.20 g/dL; in data set [3], 8.93 g/dL; in data set [4], 5.96 g/dL.
Consider `Nc1ccn([C@@H]2O[C@H](CO)[C@@H](O)[C@H]2O)c(=O)n1` [Cytidine, cytidine], for which the “Produced amount of nucleoside-5'-phosphate ester” value was determined as 7.82 g/dL in data set [5] and 6.60 g/dL in [6]. Besides, the figures for the “Produced amount of nucleoside-5'-ester” value in [7] and in data set [8] were 1.22 g/dL and 0.98 g/dL, respectively.
On to `[Ag+2]` [Ag^2+], for which the “Effect of the addition of metal ion and inhibitor on enzyme activity” value in [9] (setting [13]) and in data set [10] (setting [14]) was “inhibited” throughout.
Consider `O=C(O)CI` [iodoacetic acid], for which the “Effect of the addition of metal ion and inhibitor on enzyme activity” value in data set [9] and in data set [10] was “inhibited” each time.
`[Pb+2]` [Pb^2+]: the “Effect of the addition of metal ion and inhibitor on enzyme activity” value in [9] (setting [13]) and in data set [10] (setting [14]) was “inhibited” each time.
As to sodium polyphosphate, the “Produced 5'-inosinic acid” value in data set [1] is 2.72 g/dL; in [2] it was 1.79 g/dL; in [3], 11.45 g/dL; in data set [4], 8.84 g/dL.
For `O=c1ccn([C@@H]2O[C@H](CO)[C@@H](O)[C@H]2O)c(=O)[nH]1` [Uridine, uridine], the “Produced amount of nucleoside-5'-phosphate ester” value in [5] turned out to be 11.90 g/dL; in data set [6], 8.93 g/dL. Further, the “Produced amount of nucleoside-5'-ester” value in [7] stood at 1.87 g/dL; in data set [8] it was 1.30 g/dL.
`Nc1nc2c(ncn2[C@@H]2O[C@H](CO)[C@@H](O)[C@H]2O)c(=O)[nH]1` [Guanosine, guanosine]: the “Produced amount of nucleoside-5'-phosphate ester” value turned out to be 6.72 g/dL in data set [5] and 4.77 g/dL in data set [6]. Further, the results for the “Produced amount of nucleoside-5'-ester” value in data set [7] and in data set [8] were 1.05 g/dL and 1.90 g/dL, respectively.
On to `NC(=O)OP(=O)([O-])[O-].[Na+].[Na+]` [Disodium carbamyl phosphate, disodium carbamyl phosphate], for which the “Produced 5'-inosinic acid” value in [1] came out at 2.54 g/dL; in [2], 1.53 g/dL; in data set [3] it was 9.89 g/dL; in data set [4] it was 7.73 g/dL.
For the molecule `[Fe+2]` [Fe^2+], the “Effect of the addition of metal ion and inhibitor on enzyme activity” value in data set [9] (setting [13]) is reported as “inhibited”.
In the case of `[Cu+2]` [Cu^2+], the “Effect of the addition of metal ion and inhibitor on enzyme activity” value in data set [9] (setting [13]) and in data set [10] (setting [14]) was “inhibited” each time.
Regarding `O=P([O-])([O-])Oc1ccccc1.[Na+].[Na+]` [Disodium phenylphosphate, disodium phenylphosphate], the “Produced 5'-inosinic acid” value in [1] was determined as 2.33 g/dL; in [2], 1.50 g/dL; in data set [3], 9.62 g/dL; in [4], 7.60 g/dL.
Turning to `[Hg+2]` [Hg^2+], the “Effect of the addition of metal ion and inhibitor on enzyme activity” value in data set [9] (setting [13]) and in [10] (setting [14]) was “inhibited” throughout.
For the molecule `OC[C@H]1O[C@@H](n2cnc3c(O)ncnc32)[C@H](O)[C@@H]1O` [Inosine, inosine], the figures for the “Produced amount of nucleoside-5'-phosphate ester” value in data set [5] and in data set [6] were 10.01 g/dL and 7.45 g/dL, respectively. Besides, the “5'-inosinic acid produced and accumulated” value in data set [7] (inosine 3 g/dl, pH 4.0, 30° C.) was 1.56 g/dL. The “Produced amount of nucleoside-5'-ester” value in [7] came to 1.56 g/dL; in data set [8] it was 2.60 g/dL.

B1: acid phosphatase derived from Morganella morganii: enzyme purified from cell-free extract of Morganella morganii NCIMB 10466; mature protein SEQ ID NO: 4 (protein)
chain: AIPAGNDATTKPDLYYLKNEQAIDSLKLLPPPPEVGSIQFLNDQAMYEKGRMLRNTERGKQAQADADLAAGGVATAFSGAFGYPITEKDSPELYKLLTNMIEDAGDLATRSAKEHYMRIRPFAFYGTETCNTKDQKKLSTNGSYPSGHTSIGWATALVLAEVNPANQDAILERGYQLGQSRVICGYHWQSDVDAARIVGSAAVATLHSDPAFQAQLAKAKQEFAQKSQK
Turning to B1, the “phosphate ester hydrolytic activity (phosphomonoestrase activity) relative to transphosphorylation activity” value in data set [11] is on record as “not less than 20 times”. The Optimum temperature entry in [12] was “about 35 °C”. Further, the “Optimum pH” value in data set [12] (phosphate ester hydrolytic reaction) is reported as 6.5; in [12] (transphosphorylation reaction) it was 5.2. For the same molecule, the Temperature stability result in data set [12] (treatment at pH 7.0 for 30 minutes) is “up to 30 °C”.

The values are drawn from patent publication US6010851A, “Method for producing nucleoside-5'-phosphate ester” (Ajinomoto Co., Inc., priority 1995, dated 2000).
